Source: article PMC7673538 (PLoS Biology, 2020)
“And” between values parts separate entries of the source, which are not always exact repeats. Equal entries are not always repeated. Where two headings read alike, the source gives them in different places.

How the values were obtained:
EV-A71 = assay: microbe, parasite or virus in culture; assay type: cell-based, enterovirus A71; details: Enterovirus A
[1] = system: representative EVs and RVs; assay type: cell-based
in vitro = details: human
EV-D68 (strain Fermon) = assay type: cell-based, enterovirus D68
PV-1 = assay: microbe, parasite or virus in culture; assay type: cell-based, poliovirus 1; details: Enterovirus C
CV-B3 (strain Nancy) = assay type: cell-based, coxsackievirus B3
HRV-A2 [2] = assay: microbe, parasite or virus in culture; assay type: cell-based, human rhinovirus; details: Human rhinovirus sp., HRVA2, HeLa R19, read-out: EC50 HRV-A2
human DAT = molecular target: T1, human DAT (Homo sapiens, UniProt Q01959); assay type: cell-based; details: for DAT, Mean (Figure 8B): Control = 100; for DAT, Mean as % (Figure 8B): Control = 100%
T1 construct: expressed in transfected cells; host or cells: HEK293 (gift of Dr. Hoener, F. Hoffmann-La Roche)
T1 sequence (Q01959 whole entry): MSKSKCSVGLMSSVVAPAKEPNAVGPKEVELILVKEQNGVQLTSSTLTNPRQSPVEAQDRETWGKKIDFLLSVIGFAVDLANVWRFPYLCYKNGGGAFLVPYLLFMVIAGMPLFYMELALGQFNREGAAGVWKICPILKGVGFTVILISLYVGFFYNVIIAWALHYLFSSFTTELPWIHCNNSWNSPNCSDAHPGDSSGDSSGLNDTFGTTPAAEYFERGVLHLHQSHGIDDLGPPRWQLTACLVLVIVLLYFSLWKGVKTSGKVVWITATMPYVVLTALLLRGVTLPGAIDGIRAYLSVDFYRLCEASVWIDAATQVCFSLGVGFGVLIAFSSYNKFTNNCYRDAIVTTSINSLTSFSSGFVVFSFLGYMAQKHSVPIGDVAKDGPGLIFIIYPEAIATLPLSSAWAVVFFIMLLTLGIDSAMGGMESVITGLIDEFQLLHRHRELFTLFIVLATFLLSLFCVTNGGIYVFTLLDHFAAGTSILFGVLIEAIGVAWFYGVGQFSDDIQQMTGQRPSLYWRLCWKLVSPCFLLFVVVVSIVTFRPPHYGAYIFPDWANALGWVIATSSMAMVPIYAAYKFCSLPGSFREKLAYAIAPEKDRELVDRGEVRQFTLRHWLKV

HRV-A2 [3] = assay type: cell-based, human rhinovirus
CV-A24 (strain Joseph) = assay type: cell-based, coxsackievirus A24
EV-D68 = assay: microbe, parasite or virus in culture; assay type: cell-based, enterovirus D68; details: for EC50: Enterovirus D

O=C(c1ccco1)N(Cc1ccc(C(F)(F)F)cc1)c1ccccc1 [Compound 19d, N-phenyl-N-(4-(trifluoromethyl)benzyl)furan-2-carboxamide]
EC50 (EV-A71; EVA71, HeLa R19, read-out: EC50 EV-A71 strain BrCr): 1.68 ± 0.62 µM
EC50 (EV-A71; EVA71, HeLa R19, read-out: EC50 EV-A71 strain TW/2728/04): 2.33 ± 1.23 µM
EC50 (EV-A71; EVA71, HeLa R19, read-out: EC50 EV-A71 strain TW/2945/98): 2.9 ± 1.03 µM
EC50 (EV-A71; EVA71, HeLa R19, read-out: EC50 EV-A71 strain TW/70811/08): 0.754 ± 0.01 µM
EC50 (EV-A71; EVA71, HeLa R19, read-out: EC50 EV-A71 strain TW/72232/04): 2.54 ± 1.72 µM
EC50 (EV-A71; EVA71, HeLa R19, read-out: EC50 EV-A71 strain TW/96016/08): 1.94 ± 0.82 µM
inhibition of contemporary/clinical isolates of EV-A71, CV-A24v and EV-D68 (in words) [1]: inhibited all clinical isolates of EV-A71, CV-A24v, and EV-D68 tested
spectrum of antiviral activity (in words) [1]: inhibited all representative EVs and RVs
CC50 (in vitro; CC50 Average): > 30 µM
CC50 (in vitro; CC50 HelaR19 Average): 93.7 µM
CC50 (in vitro; Exp 1 CC50): > 30 µM
CC50 (in vitro; Exp 1 CC50 HelaR19): 92.3 µM
CC50 (in vitro; Exp2 CC50): > 30 µM
CC50 (in vitro; Exp 2 CC50 HelaR19): 95 µM
virus titer, TCID50/ml (Figure 2A) (EV-D68 (strain Fermon); compound concentration 0.01 µM): 6000000 TCID50/ml and 4677352 TCID50/ml and 3162278 TCID50/ml
virus titer, TCID50/ml (Figure 2A) (EV-D68 (strain Fermon); compound concentration 0.1 µM): 5888437 TCID50/ml and 6000000 TCID50/ml and 3162278 TCID50/ml
virus titer, TCID50/ml (Figure 2A) (EV-D68 (strain Fermon); compound concentration 0.3 µM): 6000000 TCID50/ml and 3548134 TCID50/ml
virus titer, TCID50/ml (Figure 2A) (EV-D68 (strain Fermon); compound concentration 10 µM): 31622.8 TCID50/ml and 21379.6 TCID50/ml and 35481.3 TCID50/ml
cytotoxicity (in words) (HeLa R19 cells): very minimal cytotoxicity
EC50 (PV-1; HeLa R19, read-out: EC50 Exp1): 21 µM
EC50 (PV-1; HeLa R19, read-out: EC50 Exp2): 22.1 µM
EC50 (PV-1; HeLa R19, read-out: EC50 PV-1): 21.5 ± 0.54 µM
virus titer, TCID50/ml (Figure 2A) (CV-B3 (strain Nancy); compound concentration 10 µM): 2187.76 TCID50/ml and 1625.6 TCID50/ml
virus titer, TCID50/ml (Figure 2A) (CV-B3 (strain Nancy); compound concentration 30 µM): 2187.76 TCID50/ml and 1479.11 TCID50/ml
EC50 (HRV-A2 [2]): 15.2 ± 1.13 µM
DAT, Mean (Figure 8B) (human DAT; 1µM): 99.9783
DAT, Mean as % (Figure 8B) (human DAT; 1µM): 76%
DAT, Mean (Figure 8B) (human DAT; 100µM): 90.1191
DAT, Mean as % (Figure 8B) (human DAT; 100µM): 90%
inhibition of DAT function (in words) (human DAT; HEK293 cells expressing human DAT, 1 μM or 100 μM): neither 12a, 19b, 19d, nor the combined compound 12b inhibited
virus titer, TCID50/ml (Figure 2A) (HRV-A2 [3]; compound concentration 0.01 µM): 354813 TCID50/ml
virus titer, TCID50/ml (Figure 2A) (HRV-A2 [3]; compound concentration 1 µM): 169824 TCID50/ml and 188844 TCID50/ml
virus titer, TCID50/ml (Figure 2A) (HRV-A2 [3]; compound concentration 3 µM): 354813 TCID50/ml and 588844 TCID50/ml
virus titer, TCID50/ml (Figure 2A) (HRV-A2 [3]; compound concentration 30 µM): 1316.23 TCID50/ml and 1316 TCID50/ml
virus titer, TCID50/ml (Figure 2A) (CV-A24 (strain Joseph); compound concentration 10 µM): 316.228 TCID50/ml
virus titer, TCID50/ml (Figure 2A) (CV-A24 (strain Joseph); compound concentration 30 µM): 316.228 TCID50/ml
virus titer, TCID50/ml (Figure 2A) (CV-A24 (strain Joseph); compound concentration 100 µM): 316.228 TCID50/ml
virus titer, TCID50/ml (Figure 2A) (CV-A24 (strain Joseph); compound concentration 150 µM): 316.228 TCID50/ml
resistance of reverse-engineered EV-D68 2C T196S (in words) (EV-D68): provided 19d resistance, although resistance was rather moderate
resistance of reverse-engineered EV-D68 2C V96M (in words) (EV-D68): provided 19d resistance, although resistance was rather moderate
multicycle replication assay read-out, EV-D68 Fermon (EV-D68; 0.2344 µM): 10 and 12
multicycle replication assay read-out, EV-D68 Fermon (EV-D68; 0.4688 µM): 22 and 14 and 23
multicycle replication assay read-out, EV-D68 Fermon (EV-D68; 0.9375 µM): 10 and 16.5525
multicycle replication assay read-out, EV-D68 Fermon (EV-D68; 1.875 µM): 102.405 and 111.906 and 97.379
multicycle replication assay read-out, EV-D68 Fermon (EV-D68; 3.75 µM): 102.405 and 111.906 and 97.379
multicycle replication assay read-out, EV-D68 Fermon (EV-D68; 7.5 µM): 109.948 and 106.039 and 109.278
multicycle replication assay read-out, EV-D68 Fermon (EV-D68; 15 µM): 109.948 and 106.039 and 109.278
multicycle replication assay read-out, EV-D68 Fermon (EV-D68; 30 µM): 109.948 and 106.039 and 109.278
EC50 (EV-D68; EVD68, HeLa R19, […], read-out: EC50 Exp1): 3.84 µM
EC50 (EV-D68; EVD68, HeLa R19, read-out: EC50 EV-D68): 1.37 ± 0.02 µM
EC50 (EV-D68; EVD68, HeLa R19, read-out: EC50 EV-D68 strain 4310900947): 4.6 ± 0.37 µM
EC50 (EV-D68; EVD68, HeLa R19, read-out: EC50 EV-D68 strain 4310901348): 3.55 ± 0.43 µM
EC50 (EV-D68; EVD68, HeLa R19, read-out: EC50 EV-D68 strain 4310902042): 3.53 ± 0.41 µM
EC50 (EV-D68; EVD68, HeLa R19, read-out: EC50 EV-D68 strain 4310902284): 1.82 ± 0.57 µM
EC50 (EV-D68; EVD68, HeLa R19, read-out: EC50 EV-D68 strain 4311000742): 3.91 ± 0.13 µM
EC50 (EV-D68; EVD68 / genotype 2c, HeLa R19, read-out: EC50 EV-D68 WT): 1.55 ± 0.17 µM
